Test results taken from patent publication US12098151B2 (priority 2018, dated 2024).
Where two headings read alike, the source gives them in different places.

Columns and labels:
Junin virus = assay: microbe, parasite or virus in culture; assay type: cell-based
LCMV = assay: microbe, parasite or virus in culture; assay type: cell-based, lymphocytic choriomeningitis virus (LCMV)
[1] = Mammarenavirus juninense, HEK-293T, 96 h
[2] = Mammarenavirus choriomeningitidis, KB, 96 h

Row | Structure (SMILES) | EC50 (Junin virus; [1]) | EC50 (LCMV; [2]) | other results
1 | COCCN1C[C@H](Cc2ccccc2)n2cc(C(=O)O)c(=O)c(O)c2C1=O [Compound I-057] | 2180 nM | 225 nM | 
2 | CC(C)N1CN(C2c3ccc(Cl)cc3CCc3cc(Cl)ccc32)n2cc(C(=O)O)c(=O)c(O)c2C1=O [III-025] | 31 nM | 17 nM | 
3 | O=C(O)c1cn2c(c(O)c1=O)C(=O)N(CCOc1ccc(F)cc1)C[C@@H]2C(c1ccccc1)c1ccccc1 [Compound I-048] | 518 nM | 56 nM | 
4 | CCOC(=O)c1cn2c(c(O)c1=O)C(=O)N(CCOC)C[C@@H]2C(c1ccccc1)c1ccccc1 [Compound I-066] |  | 250 nM | 
5 | O=C(O)c1cn2c(c(O)c1=O)C(=O)N(CC1CCCC1)CN2C1c2ccccc2CCc2ccccc21 [III-015] | 25 nM | 17 nM | 
6 | O=C(O)c1cn2c(c(O)c1=O)C(=O)N1CCOC[C@H]1N2[C@@H]1c2ccccc2SCc2c1ccc(F)c2F [Compound I-001] |  |  | EC50 (Junin virus; read-out: EC50): 111 nM; EC50 (LCMV; read-out: EC50): 115 nM
7 | O=C(O)c1cn2c(c(O)c1=O)C(=O)N(CC1CC1)CN2C1c2ccccc2CSc2ccccc21 (stereo not drawn) [III-014] |  |  | EC50 (Junin virus): 276 nM; EC50 (LCMV): 130 nM
8 | CCN1CN(Cc2ccc(-c3ccccc3OC)s2)n2c(C)c(C(=O)O)c(=O)c(O)c2C1=O [Compound I-073] |  |  | EC50 (Junin virus; read-out: EC50): 65 nM
9 | O=C(O)c1cn2c(c(O)c1=O)C(=O)N(CCc1ccc(F)cc1F)CN2C1c2ccccc2CCc2ccccc21 [III-011] | 97 nM | 55 nM | 
10 | CC(C)=CCN1C[C@H](C(c2ccccc2)c2ccccc2)n2cc(C(=O)O)c(=O)c(O)c2C1=O [Compound I-024] | 12 nM | 14 nM | 
11 | O=C(O)c1cn2c(c(O)c1=O)C(=O)N(Cc1cccc(Cl)c1F)C[C@@H]2C(c1ccccc1)c1ccccc1 [Compound I-023] | 11 nM | 2.2 nM | 
12 | Cc1cccc2c1CCc1c(C)cccc1C2N1CN(C(C2CC2)C2CC2)C(=O)c2c(O)c(=O)c(C(=O)O)cn21 [III-032] | 17 nM | 28 nM | 
13 | O=C(O)c1cn2c(c(O)c1=O)C(=O)N(CC1CC1)C[C@@H]2C(c1ccccc1)c1ccccc1 [Compound I-028] | 40 nM | 13 nM | 
14 | O=C(O)c1cn2c(c(O)c1=O)C(=O)N(Cc1ccc(F)cc1)CN2Cc1ccc(-c2ccccc2)cc1 [Compound I-052] | 751 nM |  | 
15 | O=C(O)c1cn2c(c(O)c1=O)C(=O)N(CC1CC1)CN2C(c1ccc(-c2ccccc2)cc1)c1ccc(-c2ccccc2)cc1 [III-018] | 173 nM | 399 nM | 
16 | Cc1cc(CN2C[C@H](C(c3ccccc3)c3ccccc3)n3cc(C(=O)O)c(=O)c(O)c3C2=O)no1 [Compound I-027] | 19 nM | 9.4 nM | 
17 | O=C(O)c1cn2c(c(O)c1=O)C(=O)N(C1CC1)CN2C1c2ccccc2CCc2ccccc21 [II-001] | 4.5 nM | 8.1 nM | 
18 | CC(C)N1C[C@H](C(c2ccccc2)c2ccccc2)n2cc(C(=O)O)c(=O)c(O)c2C1=O [Compound I-037] | 82 nM | 24 nM | 
19 | COCCCN1C[C@H](C(c2ccccc2)c2ccccc2)n2cc(C(=O)O)c(=O)c(O)c2C1=O [Compound I-044] | 354 nM | 40 nM | 

Row | Structure (SMILES) | EC50 (Junin virus; [1]) | EC50 (LCMV; [2]) | other results
20 | CN1C(=O)c2c(O)c(=O)c(C(=O)O)cn2C[C@H]1C(c1ccccc1)c1ccccc1 [Compound I-042] | 255 nM | 58 nM | 
21 | CC1Nn2cc(C(=O)O)c(=O)c(O)c2C(=O)N1C (stereo not drawn) [Compound I-011] | 1670 nM | 1930 nM | 
22 | O=C(O)c1cn2c(c(O)c1=O)C(=O)N(Cc1ccccc1)CC2Cc1ccccc1 (stereo not drawn) [Compound I-051] | 739 nM | 722 nM | 
23 | CC(C)N1CN(C2c3cccc(F)c3CCc3c(F)cccc32)n2cc(C(=O)O)c(=O)c(O)c2C1=O [Compound I-077] | 1.8 nM | 3.3 nM | 
24 | O=C(O)c1cn2c(c(O)c1=O)C(=O)N1CCCO[C@@H]1[C@@H]2C(c1ccccc1)c1ccccc1 [Compound I-050] | 640 nM |  | 
25 | CN1C(=O)c2c(O)c(=O)c(C(=O)O)cn2C(C(c2ccccc2)c2ccccc2)N1C (stereo not drawn) [Compound I-009] | 405 nM | 143 nM | 
26 | O=C(O)c1cn2c(c(O)c1=O)C(=O)N1CCCO[C@H]1[C@@H]2Cc1ccccc1 [Compound I-062] |  | 2410 nM | 
27 | CCN1CN(Cc2ccc(-c3ccccc3)cc2)n2cc(C(=O)O)c(=O)c(O)c2C1=O [Compound I-010] | 579 nM | 328 nM | 
28 | O=C(O)c1cn2c(c(O)c1=O)C(=O)N[C@H](C(c1ccccc1)c1ccccc1)C2 [Compound I-059] |  | 772 nM | 
29 | CC(C)N1CN(C2c3ccccc3CSc3ccccc32)n2cc(C(=O)O)c(=O)c(O)c2C1=O (stereo not drawn) [III-020] |  |  | EC50 (Junin virus): > 200 nM; EC50 (LCMV): 121 nM
30 | O=C(O)c1cn2c(c(O)c1=O)C(=O)N(Cc1ccccc1)C[C@@H]2C(c1ccccc1)c1ccccc1 [Compound I-041] | 180 nM | 6.2 nM | 
31 | CN1C[C@H](C2c3ccccc3CSc3ccccc32)n2cc(C(=O)O)c(=O)c(O)c2C1=O (stereo partly drawn) [Compound I-029] | 42 nM | < 31 nM | 
32 | O=C(O)c1cn2c(c(O)c1=O)C(=O)N(C(C1CC1)C1CC1)CN2C1c2ccccc2CCc2ccccc21 [III-017] | 4.9 nM | 4.4 nM | 
33 | CN1C[C@H](C(c2ccccc2)c2ccccc2)n2cc(C(=O)O)c(=O)c(O)c2C1=O [Compound I-046] | 382 nM | 69 nM | 
34 | CCN1C(=O)c2c(O)c(=O)c(C(=O)O)cn2C(C(c2ccccc2)c2ccccc2)N1CC (stereo not drawn) [Compound I-007] | 138 nM | 65 nM | 
35 | CC(C)N1CN(Cc2ccccc2CCc2ccccc2)n2cc(C(=O)O)c(=O)c(O)c2C1=O [III-005] | 243 nM | 90 nM | 
36 | Cc1cccc2c1CCc1c(C)cccc1C2N1CN(CC2CC2)C(=O)c2c(O)c(=O)c(C(=O)O)cn21 [III-031] | 4.5 nM | 4.1 nM | 
37 | O=C(O)c1cn2c(c(O)c1=O)C(=O)N(C(C1CC1)C1CC1)CN2C1c2ccccc2CSc2ccccc21 (stereo not drawn) [III-028] |  |  | EC50 (Junin virus): 2.4 nM; EC50 (LCMV): 2.1 nM
38 | O=C(O)c1cn2c(c(O)c1=O)C(=O)N(CC1CCOCC1)C[C@@H]2C(c1ccccc1)c1ccccc1 [Compound I-034] | 68 nM | 32 nM | 

Row | Structure (SMILES) | EC50 (Junin virus; [1]) | EC50 (LCMV; [2]) | other results
39 | CCN(CC)CCN1CN(C2c3ccccc3CCc3ccccc32)n2cc(C(=O)O)c(=O)c(O)c2C1=O [III-022] |  | > 1000 nM | 
40 | CC(C)N1CN(C2c3ccccc3CSc3ccccc32)n2cc(C(=O)O)c(=O)c(O)c2C1=O (stereo not drawn) [III-021] |  |  | EC50 (Junin virus): 6.2 nM; EC50 (LCMV): 4.9 nM
41 | O=C(O)CN1C[C@H](C(c2ccccc2)c2ccccc2)n2cc(C(=O)O)c(=O)c(O)c2C1=O [Compound I-063] |  | 280 nM | 
42 | O=C(O)c1cn2c(c(O)c1=O)C(=O)N(Cc1ccc(F)cc1Cl)CN2C1c2ccccc2CCc2ccccc21 [III-009] | 19 nM | 37 nM | 
43 | CC1N(C)C(=O)c2c(O)c(=O)c(C(=O)O)cn2N1C(c1ccccc1)c1ccccc1 (stereo not drawn) [Compound I-006] | 36 nM | 136 nM | 
44 | O=C(O)c1cn2c(c(O)c1=O)C(=O)N(CC1CC1)CN2C1c2cccc(F)c2CCc2c(F)cccc21 [III-034] | 4.5 nM | 3.5 nM | 
45 | CC(C)N1CN(C2c3ccccc3CSc3ccccc32)n2cc(C(=O)O)c(=O)c(O)c2C1=O (stereo not drawn) [Compound I-019] |  |  | EC50 (Junin virus): 6.9 nM; EC50 (LCMV): 2.2 nM
46 | CCCCCN1CN(C2c3ccccc3CCc3ccccc32)n2cc(C(=O)O)c(=O)c(O)c2C1=O [III-006] | 9.4 nM | 25 nM | 
47 | COCCN1C(=O)c2c(O)c(=O)c(C(=O)O)cn2N(C2c3ccccc3CCc3ccccc32)C1CCSC (stereo not drawn) [Compound I-022] | 10 nM | 1.6 nM | 
48 | CCC(C)N1C[C@H](C(c2ccccc2)c2ccccc2)n2cc(C(=O)O)c(=O)c(O)c2C1=O (stereo partly drawn) [Compound I-033] | 68 nM | 15 nM | 
49 | O=C(O)c1cn2c(c(O)c1=O)C(=O)N1CCCO[C@H]1[C@@H]2C(c1ccccc1)c1ccccc1 [Compound I-047] | 414 nM | 372 nM | 
50 | CCCN1C[C@H](C(c2ccccc2)c2ccccc2)n2cc(C(=O)O)c(=O)c(O)c2C1=O [Compound I-032] | 64 nM | 18 nM | 
51 | CC(C)N1CN(C2c3ccccc3C=Cc3ccccc32)n2cc(C(=O)O)c(=O)c(O)c2C1=O [III-002] | 4.4 nM | 11 nM | 
52 | CC(C)N1CN(Cc2ccccc2)n2cc(C(=O)O)c(=O)c(O)c2C1=O [III-026] |  | > 1000 nM | 
53 | COCCN1C[C@H](CC2CCCCC2)n2cc(C(=O)O)c(=O)c(O)c2C1=O [Compound I-056] | 2030 nM |  | 
54 | CC(C)N1CC(Cc2ccccc2)n2cc(C(=O)O)c(=O)c(O)c2C1=O (stereo not drawn) [Compound I-055] | 1870 nM |  | 
55 | CCN1CN(C(c2ccccc2)c2ccccc2)n2c(C)c(C(=O)O)c(=O)c(O)c2C1=O [Compound I-072] |  |  | EC50 (Junin virus; read-out: EC50): 14 nM
56 | COCCN1C[C@H](C(c2ccccc2)c2ccccc2)n2cc(NC(=O)OC)c(=O)c(O)c2C1=O [Compound I-012] | 3000 nM |  | 
